Data: patent publication US20260356819A1, “OXOISOINDOLINYL-SUBSTITUTED […] DERIVATIVE AND USE THEREOF” (GLUETACS THERAPEUTICS (SHANGHAI) CO., LTD., priority 2023, published 2026)

Experiments:
Type in all cases: cell-based
Settings in all cases: compounds at 50 nM and 500 nM
WEE1 = target: T1, WEE1 (Homo sapiens, UniProt P30291+Q96SW2); experiment: Western blot degradation of WEE1 in hPBMCs (24 h)
T1 construct: The supernatant was aspirated as the extracted total cell protein; endogenous in cells; host or cells: human peripheral blood mononuclear cells (hPBMCs)
Outline: (§1)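 Read-out is Western blot band grayscale, divided by internal control band and normalised to give percent target protein remaining; degradation rate is 1 minus that value. Cells were human PBMCs exposed to compound at 50 nM and 500 nM for 24 hours.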

GSPT1 = target: T2, GSPT1 (Homo sapiens, UniProt P15170+Q96SW2); experiment: Western blot degradation of GSPT1 in hPBMCs (24 h)
T2 construct: The supernatant was aspirated as the extracted total cell protein; endogenous in cells; host or cells: human peripheral blood mononuclear cells (hPBMCs)
Outline: as §1

IKZF3 = target: T3, IKZF3 (Homo sapiens, UniProt Q96SW2+Q9UKT9); experiment: Western blot degradation of IKZF3 in hPBMCs (24 h)
T3 construct: The supernatant was aspirated as the extracted total cell protein; endogenous in cells; host or cells: human peripheral blood mononuclear cells (hPBMCs)
Outline: as §1

CK1α = target: T4, CK1α (Homo sapiens, UniProt P48729+Q96SW2); experiment: Western blot degradation of CK1α in hPBMCs (24 h)
T4 construct: The supernatant was aspirated as the extracted total cell protein; endogenous in cells; host or cells: human peripheral blood mononuclear cells (hPBMCs)
Outline: as §1

IKZF2 = target: T5, IKZF2 (Homo sapiens, UniProt Q96SW2+Q9UKS7); experiment: Western blot degradation of IKZF2 in hPBMCs (24 h)
T5 construct: The supernatant was aspirated as the extracted total cell protein; endogenous in cells; host or cells: human peripheral blood mononuclear cells (hPBMCs)
Outline: as §1

IKZF1 = target: T6, IKZF1 (Homo sapiens, UniProt Q13422+Q96SW2); experiment: Western blot degradation of IKZF1 in hPBMCs (24 h)
T6 construct: The supernatant was aspirated as the extracted total cell protein; endogenous in cells; host or cells: human peripheral blood mononuclear cells (hPBMCs)
Outline: as §1

T2 sequence (P15170 whole entry): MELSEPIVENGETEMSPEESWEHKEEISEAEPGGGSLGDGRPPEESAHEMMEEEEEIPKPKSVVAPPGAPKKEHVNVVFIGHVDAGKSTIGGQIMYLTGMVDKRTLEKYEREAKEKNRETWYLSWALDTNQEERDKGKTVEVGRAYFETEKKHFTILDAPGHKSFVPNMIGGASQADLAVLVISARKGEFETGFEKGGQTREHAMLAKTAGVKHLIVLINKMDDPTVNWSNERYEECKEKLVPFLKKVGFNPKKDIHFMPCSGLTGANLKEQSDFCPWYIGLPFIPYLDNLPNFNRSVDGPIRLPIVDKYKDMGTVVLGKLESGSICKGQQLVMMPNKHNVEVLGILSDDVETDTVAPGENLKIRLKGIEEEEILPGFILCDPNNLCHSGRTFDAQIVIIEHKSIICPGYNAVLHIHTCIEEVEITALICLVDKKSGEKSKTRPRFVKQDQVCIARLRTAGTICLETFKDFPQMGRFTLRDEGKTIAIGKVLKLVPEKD
T2 sequence (Q96SW2 whole entry): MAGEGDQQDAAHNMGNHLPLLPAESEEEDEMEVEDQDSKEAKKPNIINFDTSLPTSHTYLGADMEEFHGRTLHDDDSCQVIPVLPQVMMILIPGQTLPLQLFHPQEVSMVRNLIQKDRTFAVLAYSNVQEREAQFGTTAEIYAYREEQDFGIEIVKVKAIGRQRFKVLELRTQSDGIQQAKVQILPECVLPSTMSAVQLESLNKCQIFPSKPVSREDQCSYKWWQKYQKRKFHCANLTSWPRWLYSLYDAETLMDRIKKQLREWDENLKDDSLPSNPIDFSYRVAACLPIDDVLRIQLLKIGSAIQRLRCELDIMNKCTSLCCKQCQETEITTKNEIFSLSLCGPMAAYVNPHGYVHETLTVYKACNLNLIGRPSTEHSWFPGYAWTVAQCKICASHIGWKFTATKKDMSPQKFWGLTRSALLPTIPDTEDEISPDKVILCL
T2 sequence (Q16531 whole entry partner): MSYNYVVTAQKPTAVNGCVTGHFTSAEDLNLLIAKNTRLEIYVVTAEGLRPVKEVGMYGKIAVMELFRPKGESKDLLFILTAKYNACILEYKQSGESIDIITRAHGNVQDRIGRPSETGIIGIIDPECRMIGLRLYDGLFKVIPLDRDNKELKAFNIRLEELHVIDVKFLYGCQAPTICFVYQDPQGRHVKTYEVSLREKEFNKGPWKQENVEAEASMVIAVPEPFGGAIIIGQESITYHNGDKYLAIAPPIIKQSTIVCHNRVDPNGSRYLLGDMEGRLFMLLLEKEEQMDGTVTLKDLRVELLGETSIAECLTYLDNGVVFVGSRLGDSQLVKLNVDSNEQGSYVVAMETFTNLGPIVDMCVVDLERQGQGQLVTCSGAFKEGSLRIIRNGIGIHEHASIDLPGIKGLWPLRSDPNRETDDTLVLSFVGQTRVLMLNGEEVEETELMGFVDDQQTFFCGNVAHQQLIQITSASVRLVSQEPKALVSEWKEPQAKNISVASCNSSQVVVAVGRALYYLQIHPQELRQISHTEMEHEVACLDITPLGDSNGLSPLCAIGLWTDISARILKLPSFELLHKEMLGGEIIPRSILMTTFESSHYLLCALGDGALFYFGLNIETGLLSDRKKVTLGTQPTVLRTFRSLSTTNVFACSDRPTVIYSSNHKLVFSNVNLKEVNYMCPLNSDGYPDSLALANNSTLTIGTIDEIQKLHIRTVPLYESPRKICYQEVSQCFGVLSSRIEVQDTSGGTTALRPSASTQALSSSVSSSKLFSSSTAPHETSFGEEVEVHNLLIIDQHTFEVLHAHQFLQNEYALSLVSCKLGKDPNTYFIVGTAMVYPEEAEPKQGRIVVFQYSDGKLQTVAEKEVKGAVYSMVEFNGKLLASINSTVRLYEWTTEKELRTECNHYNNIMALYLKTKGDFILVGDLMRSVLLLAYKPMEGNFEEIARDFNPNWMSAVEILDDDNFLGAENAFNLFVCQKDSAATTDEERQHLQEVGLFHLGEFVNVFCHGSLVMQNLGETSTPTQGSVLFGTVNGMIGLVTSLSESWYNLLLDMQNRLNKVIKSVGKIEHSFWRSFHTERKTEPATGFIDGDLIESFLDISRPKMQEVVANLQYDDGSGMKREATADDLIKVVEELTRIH
T6 sequence (Q13422 whole entry): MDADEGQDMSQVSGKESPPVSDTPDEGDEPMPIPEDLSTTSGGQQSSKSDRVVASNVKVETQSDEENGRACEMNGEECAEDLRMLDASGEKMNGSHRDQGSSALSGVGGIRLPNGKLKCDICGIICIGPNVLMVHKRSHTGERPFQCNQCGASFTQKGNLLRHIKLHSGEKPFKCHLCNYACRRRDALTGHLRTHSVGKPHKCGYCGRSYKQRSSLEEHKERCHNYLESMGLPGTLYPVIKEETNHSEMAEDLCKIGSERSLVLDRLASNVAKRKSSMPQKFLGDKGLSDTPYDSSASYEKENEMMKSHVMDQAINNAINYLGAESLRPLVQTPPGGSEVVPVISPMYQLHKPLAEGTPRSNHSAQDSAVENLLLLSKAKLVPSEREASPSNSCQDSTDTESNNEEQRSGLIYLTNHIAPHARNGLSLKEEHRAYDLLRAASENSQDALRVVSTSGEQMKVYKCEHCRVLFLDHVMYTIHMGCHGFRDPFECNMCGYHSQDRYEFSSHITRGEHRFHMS
T6 sequence (Q96SW2 whole entry): as the sequence (Q96SW2 whole entry) above
T6 sequence (Q16531 whole entry partner): as the sequence (Q16531 whole entry partner) above
T4 sequence (P48729 whole entry): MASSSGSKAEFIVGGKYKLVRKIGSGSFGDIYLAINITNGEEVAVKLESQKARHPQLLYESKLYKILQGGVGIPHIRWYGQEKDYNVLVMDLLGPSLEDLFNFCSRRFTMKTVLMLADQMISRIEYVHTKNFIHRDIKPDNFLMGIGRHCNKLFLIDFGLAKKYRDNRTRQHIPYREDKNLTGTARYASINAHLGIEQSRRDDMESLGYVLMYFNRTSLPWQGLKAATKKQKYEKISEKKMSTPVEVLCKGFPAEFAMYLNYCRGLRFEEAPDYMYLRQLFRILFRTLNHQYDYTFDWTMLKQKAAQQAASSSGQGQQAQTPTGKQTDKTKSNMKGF
T4 sequence (Q96SW2 whole entry): as the sequence (Q96SW2 whole entry) above
T4 sequence (Q16531 whole entry partner): as the sequence (Q16531 whole entry partner) above
T3 sequence (Q9UKT9 whole entry): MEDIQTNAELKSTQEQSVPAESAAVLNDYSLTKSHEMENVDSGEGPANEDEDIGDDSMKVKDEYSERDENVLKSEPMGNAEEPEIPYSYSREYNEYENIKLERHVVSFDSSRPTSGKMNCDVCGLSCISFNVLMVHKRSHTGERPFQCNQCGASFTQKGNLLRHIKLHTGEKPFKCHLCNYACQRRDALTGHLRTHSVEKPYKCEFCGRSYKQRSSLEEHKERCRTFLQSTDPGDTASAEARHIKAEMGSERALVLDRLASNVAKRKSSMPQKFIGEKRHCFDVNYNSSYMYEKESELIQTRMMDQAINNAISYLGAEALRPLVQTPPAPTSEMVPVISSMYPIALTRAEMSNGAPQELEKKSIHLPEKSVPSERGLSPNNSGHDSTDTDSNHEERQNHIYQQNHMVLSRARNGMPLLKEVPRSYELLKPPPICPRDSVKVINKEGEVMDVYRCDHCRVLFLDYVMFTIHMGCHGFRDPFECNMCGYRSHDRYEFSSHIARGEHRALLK
T3 sequence (Q96SW2 whole entry): as the sequence (Q96SW2 whole entry) above
T3 sequence (Q16531 whole entry partner): as the sequence (Q16531 whole entry partner) above
T1 sequence (P30291 whole entry): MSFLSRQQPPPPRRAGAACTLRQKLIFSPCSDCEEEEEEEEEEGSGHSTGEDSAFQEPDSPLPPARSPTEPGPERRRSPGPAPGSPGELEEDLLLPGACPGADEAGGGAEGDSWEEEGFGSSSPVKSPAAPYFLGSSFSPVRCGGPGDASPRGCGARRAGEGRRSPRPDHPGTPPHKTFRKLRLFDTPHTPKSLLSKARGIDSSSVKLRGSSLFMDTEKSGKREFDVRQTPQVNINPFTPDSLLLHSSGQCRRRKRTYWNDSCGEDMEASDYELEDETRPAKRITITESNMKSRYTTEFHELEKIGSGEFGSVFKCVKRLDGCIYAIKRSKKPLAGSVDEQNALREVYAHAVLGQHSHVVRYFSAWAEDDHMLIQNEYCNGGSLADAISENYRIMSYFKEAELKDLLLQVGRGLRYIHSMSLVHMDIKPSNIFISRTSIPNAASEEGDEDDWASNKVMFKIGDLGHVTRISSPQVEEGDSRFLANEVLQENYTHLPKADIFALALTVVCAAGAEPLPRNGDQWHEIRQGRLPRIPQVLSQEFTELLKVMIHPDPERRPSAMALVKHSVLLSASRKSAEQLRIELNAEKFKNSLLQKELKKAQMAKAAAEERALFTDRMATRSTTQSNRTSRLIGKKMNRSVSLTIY
T1 sequence (Q96SW2 whole entry): as the sequence (Q96SW2 whole entry) above
T1 sequence (Q16531 whole entry partner): as the sequence (Q16531 whole entry partner) above

Row | SMILES | WEE1 substrate protein remaining % (WEE1) | GSPT1 substrate protein remaining % (GSPT1) | IKZF3 substrate protein remaining % (IKZF3) | CK1α substrate protein remaining % (CK1α) | IKZF2 substrate protein remaining % (IKZF2) | IKZF1 substrate protein remaining % (IKZF1)
1 | O=C1CCN(N2Cc3cc(CN4CCN(c5ncc6ccsc6n5)CC4)ccc3C2=O)C(=O)N1 [GT-08081, 1-(1-oxo-5-((4-(thieno[2,3-d]pyrimidin-2-yl)piperazin-1-yl)methyl)isoindolin-2-yl)dihydropyrimidine-2,4(1H,3H)-dione] | A (0% ≤ substrate protein remaining % ≤80%) | A (0% ≤ substrate protein remaining % ≤80%) | B (80%< substrate protein remaining % ≤100%) | A (0% ≤ substrate protein remaining % ≤80%) | B (80%< substrate protein remaining % ≤100%) | B (80%< substrate protein remaining % ≤100%)
2 | O=C1CCN(N2Cc3cc(CN4CCC(c5ncnc6sccc56)CC4)ccc3C2=O)C(=O)N1 [GT-08082, 1-(1-oxo-5-((4-(thieno[2,3-d]pyrimidin-4-yl)piperidin-1-yl)methyl)isoindolin-2-yl)dihydropyrimidine-2,4(1H,3H)-dione] | A (0% ≤ substrate protein remaining % ≤80%) | A (0% ≤ substrate protein remaining % ≤80%) | B (80%< substrate protein remaining % ≤100%) | A (0% ≤ substrate protein remaining % ≤80%) | B (80%< substrate protein remaining % ≤100%) | B (80%< substrate protein remaining % ≤100%)
3 | Cc1cc2c(C3CCN(Cc4ccc5c(c4)CN(N4CCC(=O)NC4=O)C5=O)CC3)ncnc2s1 [GT-08083, 1-(5-((4-(6-methylthieno[2,3-d]pyrimidin-4-yl)piperidin-1-yl)methyl)-1-oxoisoindolin-2-yl)dihydropyrimidine-2,4(1H,3H)-dione] | B (80%< substrate protein remaining % ≤100%) | A (0% ≤ substrate protein remaining % ≤80%) | B (80%< substrate protein remaining % ≤100%) | A (0% ≤ substrate protein remaining % ≤80%) | B (80%< substrate protein remaining % ≤100%) | B (80%< substrate protein remaining % ≤100%)
4 | Cc1sc2ncnc(C3CCN(Cc4ccc5c(c4)CN(N4CCC(=O)NC4=O)C5=O)CC3)c2c1C [GT-08084, 1-(5-((4-(5,6-dimethylthieno[2,3-d]pyrimidin-4-yl)piperidin-1-yl)methyl)-1-oxoisoindolin-2-yl)dihydropyrimidine-2,4(1H,3H)-dione] | B (80%< substrate protein remaining % ≤100%) | A (0% ≤ substrate protein remaining % ≤80%) | B (80%< substrate protein remaining % ≤100%) | A (0% ≤ substrate protein remaining % ≤80%) | B (80%< substrate protein remaining % ≤100%) | B (80%< substrate protein remaining % ≤100%)
5 | O=C1CCN(N2Cc3cc(CN4CCC(c5ncnc6sc(-c7ccccc7)cc56)CC4)ccc3C2=O)C(=O)N1 [GT-08085, 1-(1-oxo-5-((4-(6-phenylthieno[2,3-d]pyrimidin-4-yl)piperidin-1-yl)methyl)isoindolin-2-yl)dihydropyrimidine-2,4(1H,3H)-dione] | B (80%< substrate protein remaining % ≤100%) | A (0% ≤ substrate protein remaining % ≤80%) | B (80%< substrate protein remaining % ≤100%) | A (0% ≤ substrate protein remaining % ≤80%) | B (80%< substrate protein remaining % ≤100%) | B (80%< substrate protein remaining % ≤100%)
6 | Cc1nc(C2CCN(Cc3ccc4c(c3)CN(N3CCC(=O)NC3=O)C4=O)CC2)c2ccsc2n1 [GT-08088, 1-(5-((4-(2-methylthieno[2,3-d]pyrimidin-4-yl)piperidin-1-yl)methyl)-1-oxoisoindolin-2-yl)dihydropyrimidine-2,4(1H,3H)-dione] | A (0% ≤ substrate protein remaining % ≤80%) | A (0% ≤ substrate protein remaining % ≤80%) | B (80%< substrate protein remaining % ≤100%) | A (0% ≤ substrate protein remaining % ≤80%) | B (80%< substrate protein remaining % ≤100%) | B (80%< substrate protein remaining % ≤100%)
7 | Cc1nc(C2CCN(Cc3ccc4c(c3)CN(N3CCC(=O)NC3=O)C4=O)CC2)c2c3c(sc2n1)CCCC3 [GT-08089, 1-(5-((4-(2-methyl-5,6,7,8-tetrahydrobenzo[4,5]thieno[2,3-d]pyrimidin-4-yl)piperidin-1-yl)methyl)-1-oxoisoindolin-2-yl)dihydropyrimidine-2,4(1H,3H)-dione] | A (0% ≤ substrate protein remaining % ≤80%) | A (0% ≤ substrate protein remaining % ≤80%) | B (80%< substrate protein remaining % ≤100%) | A (0% ≤ substrate protein remaining % ≤80%) | B (80%< substrate protein remaining % ≤100%) | B (80%< substrate protein remaining % ≤100%)
8 | O=C1CCN(N2C(=O)c3ccc(CN4CCN(c5ncnc6sccc56)CC4)cc3C2=O)C(=O)N1 [GT-08090, 2-(2,4-dioxotetrahydropyrimidin-1(2H)-yl)-5-((4-(thieno[2,3-d]pyrimidin-4-yl)piperazin-1-yl)methyl)isoindoline-1,3-dione] | A (0% ≤ substrate protein remaining % ≤80%) | A (0% ≤ substrate protein remaining % ≤80%) | B (80%< substrate protein remaining % ≤100%) | A (0% ≤ substrate protein remaining % ≤80%) | B (80%< substrate protein remaining % ≤100%) | B (80%< substrate protein remaining % ≤100%)
9 | Cc1csc2ncnc(N3CCN(Cc4ccc5c(c4)C(=O)N(N4CCC(=O)NC4=O)C5=O)CC3)c12 [GT-08091, 2-(2,4-dioxotetrahydropyrimidin-1(2H)-yl)-5-((4-(5-methylthieno[2,3-d]pyrimidin-4-yl)piperazin-1-yl)methyl)isoindoline-1,3-dione] | A (0% ≤ substrate protein remaining % ≤80%) | A (0% ≤ substrate protein remaining % ≤80%) | B (80%< substrate protein remaining % ≤100%) | A (0% ≤ substrate protein remaining % ≤80%) | B (80%< substrate protein remaining % ≤100%) | B (80%< substrate protein remaining % ≤100%)
10 | Cc1cc2c(N3CCN(Cc4ccc5c(c4)C(=O)N(N4CCC(=O)NC4=O)C5=O)CC3)ncnc2s1 [GT-08092, 2-(2,4-dioxotetrahydropyrimidin-1(2H)-yl)-5-((4-(6-methylthieno[2,3-d]pyrimidin-4-yl)piperazin-1-yl)methyl)isoindoline-1,3-dione] | A (0% ≤ substrate protein remaining % ≤80%) | A (0% ≤ substrate protein remaining % ≤80%) | B (80%< substrate protein remaining % ≤100%) | A (0% ≤ substrate protein remaining % ≤80%) | B (80%< substrate protein remaining % ≤100%) | B (80%< substrate protein remaining % ≤100%)
11 | CC(C)c1cc2c(N3CCN(Cc4ccc5c(c4)C(=O)N(N4CCC(=O)NC4=O)C5=O)CC3)ncnc2s1 [GT-08093, 2-(2,4-dioxotetrahydropyrimidin-1(2H)-yl)-5-((4-(6-isopropylthieno[2,3-d]pyrimidin-4-yl)piperazin-1-yl)methyl)isoindoline-1,3-dione] | A (0% ≤ substrate protein remaining % ≤80%) | A (0% ≤ substrate protein remaining % ≤80%) | B (80%< substrate protein remaining % ≤100%) | A (0% ≤ substrate protein remaining % ≤80%) | B (80%< substrate protein remaining % ≤100%) | B (80%< substrate protein remaining % ≤100%)
12 | Cc1sc2ncnc(N3CCN(Cc4ccc5c(c4)C(=O)N(N4CCC(=O)NC4=O)C5=O)CC3)c2c1C [GT-08094, 5-((4-(5,6-dimethylthieno[2,3-d]pyrimidin-4-yl)piperazin-1-yl)methyl)-2-(2,4-dioxotetrahydropyrimidin-1(2H)-yl)isoindoline-1,3-dione] | A (0% ≤ substrate protein remaining % ≤80%) | A (0% ≤ substrate protein remaining % ≤80%) | B (80%< substrate protein remaining % ≤100%) | A (0% ≤ substrate protein remaining % ≤80%) | B (80%< substrate protein remaining % ≤100%) | B (80%< substrate protein remaining % ≤100%)
